Experimental data reported in the supplement of paper PMC11616607.

Legend:
Assay in all cases: drug sensitivity score (DSS) from 5-point dose-response viability curve (DSS (area-under-curve based score)); higher = more sensitive (stronger growth inhibition or killing); extreme values may be limits of the assay
Conditions in all cases: exposure time: 72 h; concentration range: 5 concentrations over 10,000-fold range
Kuramochi = tested on: Kuramochi
In short: (§1)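 Drug sensitivity scores were calculated in Breeze software for each cell line and drug pair; higher scores indicate more sensitivity. A score of zero indicates no response. The underlying assay used 384-well plates: drugs were placed by an Echo 550 acoustic dispenser at five concentrations spanning a 10,000-fold range, 1,500 ovarian cancer or normal ovarian cells were added per well, and cells were kept 3 days at 37°C, 5% CO2. Viability was then measured with CellTiter-Glo luminescence on a PHERAstar FS.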

JHOS2 = tested on: JHOS2
In short: as §1

OVCAR8 = tested on: OVCAR8
In short: as §1

HOSE1C = tested on: HOSE1C
In short: as §1

CAOV3 = tested on: CAOV3
In short: as §1

COV318 = tested on: COV318
In short: as §1

OVCAR5 = tested on: OVCAR5
In short: as §1

HOSE2C = tested on: HOSE2C
In short: as §1

OV90 = tested on: OV90
In short: as §1

COV362 = tested on: COV362
In short: as §1

Ovsaho = tested on: Ovsaho
In short: as §1

OVCAR4 = tested on: OVCAR4
In short: as §1

Row | Compound | drug sensitivity score (Kuramochi) | drug sensitivity score (JHOS2) | drug sensitivity score (OVCAR8) | drug sensitivity score (HOSE1C) | drug sensitivity score (CAOV3) | drug sensitivity score (COV318) | drug sensitivity score (OVCAR5) | drug sensitivity score (HOSE2C) | drug sensitivity score (OV90) | drug sensitivity score (COV362) | drug sensitivity score (Ovsaho) | drug sensitivity score (OVCAR4)
1 | CO[C@@H](C(=O)N1Cc2[nH]nc(NC(=O)c3ccc(N4CCN(C)CC4)cc3)c2C1)c1ccccc1 [Danusertib] | 11.1 | 3.1 | 8.7 | 7.4 | 23.5 | 4.3 | 7.2 | 12.5 | 4.9 | 5.6 | 14.7 | 8.7
2 | CCN(CC)CCN(Cc1ccc(-c2ccc(C(F)(F)F)cc2)cc1)C(=O)Cn1c(SCc2ccc(F)cc2)nc(=O)c2c1CCC2 [Darapladib] | 1 | 0.3 | 0 | 0 | 0 | 0.2 | 0.9 | 0 | 0.6 | 2.4 | 2 | 0
3 | Cc1nc(Nc2ncc(C(=O)Nc3c(C)cccc3Cl)s2)cc(N2CCN(CCO)CC2)n1 [Dasatinib] | 18.5 | 3.5 | 9.1 | 4.6 | 9.9 | 0.2 | 8 | 6 | 5.5 | 8.2 | 12.1 | 4.6
4 | COc1cccc2c1C(=O)c1c(O)c3c(c(O)c1C2=O)C[C@@](O)(C(C)=O)C[C@@H]3O[C@H]1C[C@H](N)[C@H](O)[C@H](C)O1 [Daunorubicin] | 4.2 | 6.2 | 10.8 | 11.5 | 9.4 | 1.7 | 8.2 | 10.9 | 5.3 | 3.6 | 7.9 | 3.2
5 | CC[C@@](C)(Nc1ccnc(-c2c[nH]c3ncccc23)n1)C(=O)NCC(F)(F)F [Decernotinib] | 0 | 0 | 0 | 0 | 0 | 0 | 0 | 0.6 | 0 | 0 | 0 | 0
6 | Nc1ncn([C@H]2C[C@H](O)[C@@H](CO)O2)c(=O)n1 [Decitabine] | 0 | 0 | 2.8 | 0 | 2.3 | 0 | 2.4 | 0.5 | 0 | 0 | 0 | 2.8
7 | CC(=O)N(O)CCCCCNC(=O)CCC(=O)N(O)CCCCCNC(=O)CCC(=O)N(O)CCCCCN [Deferoxamine] | 3.7 | 0.7 | 2.7 | 1.8 | 2.8 | 2.2 | 2.6 | 0 | 4.5 | 0.5 | 3.8 | 3.4
8 | C[C@@H]1C[C@H]2[C@@H]3CCC4=CC(=O)C=C[C@]4(C)[C@@]3(F)[C@@H](O)C[C@]2(C)[C@@]1(O)C(=O)CO [Dexamethasone] | 0 | 0 | 0 | 0 | 0 | 0 | 0 | 0 | 0 | 0.5 | 0 | 0
9 | C[C@H]1O[C@@H](O[C@H]2[C@@H](O)C[C@H](O[C@H]3[C@@H](O)C[C@H](O[C@H]4CC[C@@]5(C)[C@H](CC[C@@H]6[C@@H]5C[C@@H](O)[C@]5(C)[C@@H](C7=CC(=O)OC7)CC[C@]65O)C4)O[C@@H]3C)O[C@@H]2C)C[C@H](O)[C@@H]1O [Digoxin] | 8.5 | 10.9 | 11.2 | 11.1 | 6.2 | 11.9 | 7.5 | 9.5 | 7.2 | 10.8 | 7.1 | 9.6
10 | CCc1cnn2c(NCc3ccc[n+]([O-])c3)cc(N3CCCC[C@H]3CCO)nc12 [Dinaciclib] | 13.1 | 19 | 20.7 | 28 | 17.9 | 15.9 | 17.9 | 15.4 | 21.2 | 13.6 | 17.9 | 15.7
11 | CC(=O)O[C@@]12CO[C@@H]1C[C@H](O)[C@@]1(C)C(=O)[C@H](O)C3=C(C)[C@@H](OC(=O)[C@H](O)[C@@H](NC(=O)OC(C)(C)C)c4ccccc4)C[C@@](O)([C@@H](OC(=O)c4ccccc4)[C@H]21)C3(C)C [Docetaxel] | 16 | 13.9 | 27.7 | 29.3 | 28.7 | 9.5 | 23.4 | 27.6 | 15.5 | 9.3 | 10.3 | 8.1
12 | Cc1ccc(-n2nc(C(C)(C)C)cc2NC(=O)Nc2ccc(OCCN3CCOCC3)c3ccccc23)cc1 [Doramapimod] | 0.6 | 0 | 1.8 | 5 | 0 | 0 | 1.1 | 2.9 | 1.5 | 0 | 2.9 | 2.4
